Assay results: patent US9345716B2, “Protein free surfactant composition for pulmonary diseases and a process for preparing the same” (INDIAN INSTITUTE OF TECHNOLOGY, BOMBAY, priority 2010, dated 2016)
“And” between values parts separate entries of the source, which are not always exact repeats. Equal values may be shown once.

Experiments:
[1] = Airway patency in a capillary surfactometer; settings: 37 C, graded concentrations of albumin
Experimental: This is evaluated in a capillary surfactometer at 37 C at a concentration of 1 mg/ml of the surfactant in the presence of 0.5 mg/ml of albumin.
FIG. 2 compares the airway patency of DPPC:Eugenol 5:3 (present invention) at a concentration of 1 mg/ml with that of DPPC:clove oil 5:3 1 mg/ml in the absence and presence of 0.5 mg/ml of albumin in a capillary surfactometer at 37 C.

[2] = Laurdan fluorescence ratio (lamellar/non-lamellar phase state); type: physicochemical; settings: for Ratio of Laurdan fluorescence 360/390: 360 and 390 nm; for Ratio of Laurdan fluorescence 360/490: 360 and 490 nm
From the text: (§1) Laurdan (6-dodecanoyl-2-dimethylaminonaphthalene) is a fluorescent membrane probe that has the advantage of displaying spectral sensitivity to the phospholipids phase state.
as §1

[3] = Atomic force microscopy of surfactant films in presence of albumin; type: physicochemical; settings: in the presence of albumin
From the text: The invented surfactant of DPPC: eugenol 5:3 forms closely packed structures having nanodomains in the presence of albumin. The DPPC: eugenol surfactant in the absence and presence of albumin was compared with that of DPPC alone in the absence and presence of albumin, using atomic force microscopy (AFM). AFM images of DPPC in the presence of albumin and DPPC: eugenol 5:3 in the presence of albumin are depicted in FIGS. 11 and 13 respectively and the roughness of the structures are depicted in FIGS. 12 and 14. […] The surface roughness of DPPC in the presence of albumin is depicted in FIG. 12. It confirms large aggregates with roughness of 47.47 nm. On the other hand, in the case of DPPC: eugenol in the presence of albumin, the surface roughness is only 8.9 nm as depicted in FIG. 14. The formation of nanodomains of 80-90 nm with surface roughness of 8.9 nm allows a closely packed organization which accounts for the improved surface activity of the surfactant in the presence of albumin.

[4] = Differential scanning calorimetry: energy required by liposomes to reach the interface; type: physicochemical; settings: liposomes 1 mg/ml
Experimental: Differential scanning calorimetry (DSC) was also used to study the interaction of bioactive compounds with model lipid bilayers such as DPPC. The experiments were performed at temperature ranging from 35° C. to 115° C. The rate of heating was 3° C./min and the system was allowed to cool to about 35° C. before the next experiment. The samples studied in the order of DSC results were,
Differential scanning calorimetry (DSC) was used to study the interaction of bioactive compounds with model lipid bilayers such as DPPC. The experiments were performed at temperature ranging from 35° C. to 115° C. The rate of heating was 3° C./min and the system was allowed to cool to about 35° C. before the next experiment. […] The lower the energy required by the nanovesicles, better is the rate of adsorption. […] On addition of HCl (as an acid inhibitor), there was an increase in the energy (1743 J/g) of the DPPC liposomes which affected the adsorption (59.89±2.22mN/m) of these acid-treated liposomes. The energy barrier prevented the rapid entry of these liposomes at the interface thereby affecting adsorption.

[5] = Surfactant adsorption to air-liquid interface in a langmuir trough; type: physicochemical
Experimental: Salbutamol or dexamethasone were added in a ratio of 1 part of surfactant to 0.1 parts of drug while gentamycin was added in a ratio of 1 part of surfactant to 0.2 parts of drug by weight.

Row | Compound | Airway patency in presence of graded amounts of albumin [1] [%] | Ratio of Laurdan fluorescence 360/390 ([2]; in the presence of albumin) | Ratio of Laurdan fluorescence 360/390 ([2]; no albumin) | Ratio of Laurdan fluorescence 360/490 ([2]; in the presence of albumin) | Ratio of Laurdan fluorescence 360/490 ([2]; no albumin) | Domain size (AFM) [3] | Surface roughness (AFM) [3] [nm] | Energy required for the liposomes to reach the interface (DSC) ([4]; HCl 3.1×10^−1 moles/dm^3) [J/g] | Energy required for the liposomes to reach the interface (DSC) ([4]; acid-untreated) [J/g] | Adsorption (rate of adsorption, surface tension) ([5]; acid-treated, HCl 3.1×10^−1 moles/dm^3) [mN/m] | Adsorption (rate of adsorption, surface tension) ([5]; acid-untreated, liposomes 1 mg/ml) [mN/m]
1 | CCCCCCCCCCCCCCCC(=O)OC[C@H](COP(=O)([O-])OCC[N+](C)(C)C)OC(=O)CCCCCCCCCCCCCCC [DPPC, dipalmitoylphosphatidylcholine] | 0 | 1.98 and 1.99 | 2.6 and 2.615 | 1.21 and 1.215 | 2.41 | 540-550 nm | 47.47 | 1743 | 1325 | 59.89±2.22 | 44.66±1.71
2 | C=CCc1ccc(O)c(OC)c1 [eugenol] | 0 | – | – | – | – | – | – | – | – | – | –
